Measured values: US11945798B2, “Substituted aminopyridine compounds as EGFR inhibitors” (YUHAN CORPORATION, priority 2021, dated 2024)
Read-outs that look alike come from different tables or passages of the source.

Columns and labels:
EGFR L858R/C797S = EGFR L858R/C797S (Homo sapiens, UniProt P00533, C797S/L858R); assay: Biochemical EGFR kinase assay (Lance Ultra TR-FRET), L858R/C797S
Method: (§1) Biochemical EGFR kinase assays were conducted using Lance Ultra time-resolved fluorescence resonance energy transfer (TR-FRET) technology from Perkin-Elmer. Compounds of the invention were initially diluted to 20 mM in 100% DMSO for storage and made into kinase buffer solution to create a compound concentration ranging from 0.003 μM and 10 μM.
(§2) Each kinase reactions were incubated at room temperature for 1 hour and then stopped by the addition of 4 μL of stop solution (10 mM EDTA). The specific Europium-labeled-anti-phosphopeptide antibody (PerkinElmer, AD0069) diluted in LANCE detection buffer was then added to a final concentration of 2 nM. After 60 minutes incubation at room temperature the LANCE signal was measured on an EnVision Multilabel Reader (Perkin-Elmer). Excitation wavelength was set at 320 nm and emission monitored at 615 nm (donor) and 665 nm (acceptor). The IC50 values were determined using GraphPad prism software (GraphPad Software, Inc., San Diego, CA, USA).

EGFR del19/C797S = EGFR del19/C797S (Homo sapiens, UniProt P00533, C797S/DEL746-750); assay: Biochemical EGFR kinase assay (Lance Ultra TR-FRET), del19/C797S
Method: as §1, §2

EGFR del19/T790M/C797S = EGFR del19/T790M/C797S (Homo sapiens, UniProt P00533, C797S/DEL746-750/T790M); assay: Biochemical EGFR kinase assay (Lance Ultra TR-FRET), del19/T790M/C797S
Method: as §1, §2

EGFR wildtype (WT) = EGFR wildtype (WT) (Homo sapiens, UniProt P00533); assay: Biochemical EGFR kinase assay (Lance Ultra TR-FRET), wildtype
Method: as §1, §2

EGFR L858R/T790M/C797S = EGFR L858R/T790M/C797S (Homo sapiens, UniProt P00533, C797S/L858R/T790M); assay: Biochemical EGFR kinase assay (Lance Ultra TR-FRET), L858R/T790M/C797S
Method: as §1, §2

[1] = read-out: IC50 L858R/C797S (nM) 100 μM ATP, 100 μM ATP
[2] = read-out: IC50 del19/C797S (nM) 100 μM ATP, 100 μM ATP
[3] = read-out: IC50 WT (nM) 100 μM ATP, 100 μM ATP
[4] = IC50 L858R/C797S (nM) 100 μM ATP, 100 μM ATP
[5] = IC50 del19/C797S (nM) 100 μM ATP, 100 μM ATP
[6] = IC50 WT (nM) 100 μM ATP, 100 μM ATP
[7] = Km ATP, read-out: IC50 L858R/C797S (nM) Km ATP
[8] = Km ATP, read-out: IC50 del19/C797S (nM) Km ATP
[9] = Km ATP, read-out: IC50 L858R/T790M/C797S (nM) Km ATP
[10] = Km ATP, read-out: IC50 WT (nM) Km ATP
[11] = Km ATP, read-out: IC50 del19/T790M/C797S (nM) Km ATP

IC50 (EGFR L858R/C797S; [7])	IC50 (EGFR del19/C797S; [8])	IC50 (EGFR L858R/T790M/C797S; [9])	IC50 (EGFR wildtype (WT); [10])	IC50 (EGFR del19/T790M/C797S; [11])	Molecule	also measured
123 nM	–	–	415 nM	5.7 nM	CN(C)C[C@H]1CC[C@H](CNc2cc(Nc3ccnc(-c4cnn(CC5CC5)c4)n3)ncc2C(=O)C2CC2)CC1 [Example 61, Cyclopropyl(6-((2-(1-(cyclopropylmethyl)-1H-pyrazol-4-yl)pyrimidin-4-yl)amino)-4-((((1r,4r)-4-((dimethylamino)methyl)cyclohexyl)methyl)amino)pyridin-3-yl)methanone]	–
–	52.5 nM	5.8 nM	389 nM	0.7 nM	CC(=O)c1cnc(Nc2ccnc(-c3cnn(S(=O)(=O)C4CC4)c3)n2)cc1OC[C@H]1CC[C@H](CN(C)C)CC1 [Example 65, 1-(6-((2-(1-(Cyclopropylsulfonyl)-1H-pyrazol-4-yl)pyrimidin-4-yl)amino)-4-(((1r,4r)-4-((dimethylamino)methyl)cyclohexyl)methoxy)pyridin-3-yl)ethan-1-one]	–
45.8 nM	7.2 nM	–	2040 nM	1 nM	CC(C)C(=O)NC[C@H]1CC[C@H](CNc2cc(Nc3ccnc(-c4cnn(S(=O)(=O)C5CC5)c4)n3)ncc2C(=O)C2CC2)CC1 [Example 72, N-(((1r,4r)-4-(((5-(Cyclopropanecarbonyl)-2-((2-(1-(cyclopropylsulfonyl)-1H-pyrazol-4-yl)pyrimidin-4-yl)amino)pyridin-4-yl)amino)methyl)cyclohexyl)methyl)isobutyramide]	–
–	16.1 nM	3.1 nM	691 nM	17.4 nM	CC(NCC1CCC(CNc2cc(Nc3ccnc(-c4cnn(S(=O)(=O)C5CC5)c4)n3)ncc2C(=O)C2CC2)CC1)C(F)F (stereo not shown) [Example 73, Cyclopropyl(6-((2-(1-(cyclopropylsulfonyl)-1H-pyrazol-4-yl)pyrimidin-4-yl)amino)-4-((((1r,4r)-4-(((1,1-difluoropropan-2-yl)amino)methyl)cyclohexyl)methyl)amino)pyridin-3-yl)methanone]	–

More lines, now with the values behind:

Molecule	IC50 (EGFR L858R/C797S; [7])	IC50 (EGFR del19/C797S; [8])	IC50 (EGFR L858R/T790M/C797S; [9])	IC50 (EGFR wildtype (WT); [10])	IC50 (EGFR del19/T790M/C797S; [11])	also measured
6-((2-(1-(Cyclopropylsulfonyl)-1H-pyrazol-4-yl)pyrimidin-4-yl)amino)-N-(2-fluoroethyl)-4-(((1R,3S)-3-(hydroxymethyl)cyclopentyl)amino)nicotinamide [Example 75]	–	–	–	–	–	IC50 (EGFR L858R/C797S; [1]): 30.5 nM; IC50 (EGFR del19/C797S; [2]): 14.5 nM; IC50 (EGFR del19/T790M/C797S; read-out: IC50 del19/T790M/C797S (nM) 100 μM ATP, 100 μM ATP): 0.7 nM; IC50 (EGFR wildtype (WT); [3]): > 10000 nM
O=C(c1cnc(Nc2ccnc(-c3cnn(S(=O)(=O)C4CC4)c3)n2)cc1N[C@H]1CC[C@H](O)C1)C1CC1 [Example 24, Cyclopropyl(6-((2-(1-(cyclopropylsulfonyl)-1H-pyrazol-4-yl)pyrimidin-4-yl)amino)-4-(((1S,3S)-3-hydroxycyclopentyl)amino)pyridin-3-yl)methanone]	–	–	–	–	–	IC50 (EGFR L858R/C797S; [4]): 79.1 nM; IC50 (EGFR del19/C797S; [5]): 70.9 nM; IC50 (EGFR L858R/T790M/C797S; IC50 L858R/T790M/C797S (nM) 100 μM ATP, 100 μM ATP): 4.4 nM; IC50 (EGFR wildtype (WT); [6]): > 10000 nM
CC(C)Nc1cc(Nc2ccnc(-c3cnn(S(=O)(=O)C4CC4)c3)n2)ncc1F [Example 41, N^2-(2-(1-(Cyclopropylsulfonyl)-1H-pyrazol-4-yl)pyrimidin-4-yl)-5-fluoro-N^4-isopropylpyridine-2,4-diamine]	444 nM	47.7 nM	5.6 nM	145 nM	–	–
CC(C)Nc1cc(Nc2ccnc(-c3cnn(S(=O)(=O)C4CC4)c3)n2)ncc1C1=CCCCO1 [Example 84, N^2-(2-(1-(Cyclopropylsulfonyl)-1H-pyrazol-4-yl)pyrimidin-4-yl)-5-(3,4-dihydro-2H-pyran-6-yl)-N^4-isopropylpyridine-2,4-diamine]	–	–	–	–	–	IC50 (EGFR L858R/C797S; [4]): 523 nM; IC50 (EGFR del19/C797S; [5]): 107 nM; IC50 (EGFR del19/T790M/C797S; IC50 del19/T790M/C797S (nM) 100 μM ATP, 100 μM ATP): 4.5 nM; IC50 (EGFR wildtype (WT); [6]): > 10000 nM
Cyclopropyl(6-((2-(1-(cyclopropylsulfonyl)-1H-pyrazol-4-yl)pyrimidin-4-yl)amino)-4-((4-((4-methylpiperazin-1-yl)amino)cyclohexyl)amino)pyridin-3-yl)methanone [Example 54]	–	–	–	–	–	IC50 (EGFR L858R/C797S; [1]): 33.8 nM; IC50 (EGFR del19/C797S; [2]): 66.1 nM; IC50 (EGFR wildtype (WT); [3]): > 10000 nM
